Results taken from patent publication US20240229066A1 (priority 2020, published 2024).
Peptide text beside a SMILES is read from it. * marks the point of attachment. Cbz = O=C(OCc1ccccc1)*; CHN2 = [N-]=[N+]=C*

Assays:
Type in all cases: cell-based, recombinant vesicular stomatitis virus
[1] = system: rVSVs carrying SARS-CoV 2 S
[2] = system: rVSVs bearing SARS-CoV-2 S
rVSVs bearing EBOV GP = system: rVSVs bearing EBOV GP

## [N-]=[N+]=CC(=O)C(Cc1ccc(O)cc1)NC(=O)C(Cc1ccccc1)NC(=O)OCc1ccccc1 (stereo not drawn) [FYdmk, Z-Phe-tyr-dmk] (Cbz-Phe-Tyr-CHN2; configuration not given here)
[1]
  S-mediated entry (infection scored by eGFP expression): inhibited S-mediated entry
  sensitivity of S-mediated entry relative to EBOV GP-dependent entry: reduced sensitivity

## Cl.N [NH4Cl]
[2]
  entry by rVSVs bearing SARS-CoV-2 S (infection scored by eGFP expression): reduced entry
  sensitivity of S-mediated entry compared with entry by EBOV GP: comparatively less sensitive
rVSVs bearing EBOV GP
  entry by rVSVs bearing EBOV GP (infection scored by eGFP expression): reduced entry
